Legend:
Tpa1p [1] = target: T1, Tpa1p (Saccharomyces cerevisiae, UniProt P40032); experiment: X-ray crystal structure, […] Å; type: binding
T1 construct: gene TPA1; full-length (644 aa), N-terminal hexa-histidine tag

OGFOD1 [2] = target: T2, OGFOD1 (Homo sapiens, UniProt Q8N543); experiment: X-ray crystal structure, […] Å (also enzyme inhibition, Figure 6A); type: binding; design: full-length (542 aa), N-terminal hexa-histidine tag
T2 sequence (Q8N543 1-542): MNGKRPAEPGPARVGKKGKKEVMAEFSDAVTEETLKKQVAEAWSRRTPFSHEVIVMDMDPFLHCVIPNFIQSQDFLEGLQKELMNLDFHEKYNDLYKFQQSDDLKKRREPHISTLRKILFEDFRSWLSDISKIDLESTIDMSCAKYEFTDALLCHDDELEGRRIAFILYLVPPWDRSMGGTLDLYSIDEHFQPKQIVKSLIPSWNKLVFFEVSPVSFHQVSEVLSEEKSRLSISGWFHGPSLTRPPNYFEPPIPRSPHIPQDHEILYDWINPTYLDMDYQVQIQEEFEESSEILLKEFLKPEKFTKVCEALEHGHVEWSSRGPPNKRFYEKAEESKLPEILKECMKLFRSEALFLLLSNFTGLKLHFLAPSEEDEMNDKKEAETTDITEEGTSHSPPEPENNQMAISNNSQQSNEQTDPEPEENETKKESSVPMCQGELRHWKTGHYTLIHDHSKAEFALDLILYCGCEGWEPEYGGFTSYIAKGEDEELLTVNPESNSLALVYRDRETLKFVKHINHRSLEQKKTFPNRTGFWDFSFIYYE

Tpa1p [3] = target: T1, Tpa1p; experiment: X-ray crystal structure, […] Å; type: binding; remark: listed apart in the source
OGFOD1 [4] = target: T2, OGFOD1; experiment: hydroxylation of uS12 […]-70 peptide by MALDI-TOF MS; type: biochemical; design: 542 aa, N-terminal hexa-histidine tag

T1 sequence (P40032 whole entry): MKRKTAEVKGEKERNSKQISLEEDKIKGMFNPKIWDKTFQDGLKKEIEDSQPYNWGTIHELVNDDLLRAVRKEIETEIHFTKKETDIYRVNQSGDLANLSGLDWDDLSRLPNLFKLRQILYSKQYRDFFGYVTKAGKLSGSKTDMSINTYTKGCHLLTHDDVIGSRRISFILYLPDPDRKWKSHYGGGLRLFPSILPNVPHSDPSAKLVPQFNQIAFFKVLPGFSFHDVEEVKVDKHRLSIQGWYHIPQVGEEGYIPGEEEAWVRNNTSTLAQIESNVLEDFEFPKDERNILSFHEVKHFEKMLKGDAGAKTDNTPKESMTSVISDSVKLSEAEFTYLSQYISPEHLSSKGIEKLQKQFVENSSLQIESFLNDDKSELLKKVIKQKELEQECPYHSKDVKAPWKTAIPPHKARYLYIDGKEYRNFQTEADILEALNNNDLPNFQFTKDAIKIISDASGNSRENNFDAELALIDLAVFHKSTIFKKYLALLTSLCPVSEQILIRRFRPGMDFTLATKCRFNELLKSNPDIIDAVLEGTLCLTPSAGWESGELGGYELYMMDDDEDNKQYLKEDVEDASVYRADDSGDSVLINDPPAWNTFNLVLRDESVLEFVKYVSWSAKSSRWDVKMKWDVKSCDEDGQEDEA

For `O=C(O)CNC(=O)C(=O)O` [N-oxalylglycine], which “X-ray crystal structure, 2.8 Å” value (Tpa1p [1]) is on record?
The value was “OGFOD1 and Tpa1p bind NOG similarly”.

What about the “X-ray crystal structure, 2.1 Å (also enzyme inhibition, Figure 6A)” value (OGFOD1 [2]) of the same compound?
Its value is “With OGFOD1 the C-5 carboxylate of NOG is positioned to form hydrogen bonds to the side chains of Tyr169 and Arg230”.

How did the “X-ray crystal structure, 1.9 Å” value (Tpa1p [3]) turn out when `O=C(O)CNC(=O)c1nc(Cl)c2ccccc2c1O` [IOX3, 1-chloro-4-hydroxyisoquinoline-3-carbonylglycine] was run?
Its value is “In Tpa1p, IOX3 binds similarly to NOG with its glycyl side chain carboxylate positioned to form a salt bridge”.

What about the IC50 (OGFOD1 [4]) of the same compound?
Its IC50 is 520 ± 80 nM.

From article PMC4396695, “Structure of the Ribosomal Oxygenase OGFOD1 Provides Insights into the Regio- and Stereoselectivity of Prolyl Hydroxylases” (Structure(London, England:1993), 2015)
